Test results from paper PMC8998618, “A Pharmacokinetic and Metabolism Study of the TRPC6 Inhibitor SH045 in Mice by LC-MS/MS” (International Journal of Molecular Sciences, 2022).
Read-outs that look alike come from different tables or passages of the source.

Tests used:
TRPC6 = system: TRPC6; set-up: method as in PMID 29522264; settings: in vitro; cited from earlier work
[1] = system: ischemic lungs explanted from mice; set-up: method as in PMID 29522264; settings: ex vivo; cited from earlier work
[2] = tissue homogenate binding by ultrafiltration; assay type: in vitro ADME, mice; settings: mean ± RSD
[3] = tissue distribution after single and repeated administration; assay type: in vivo, mice; settings: for concentration at 24 h: 20 mg/kg, mean ± SEM
Method: Via heparin-coated catheters a maximum of 50 µL blood was collected from the tail vein at 0.25, 0.5, 1, 2, 3, 4, 6, 8, or 24 h after administration and immediately centrifuged at 4000× g at 4 °C for 10 min. For repeated administration 20 mg/kg BW SH045 were administered at 8:00 a.m. on five consecutive days, once a day. Blood was taken 1 h and 24 h after drug administration. Tissue samples were harvested from isoflurane-euthanized animals at indicated time points. Mice were transcardially perfused with PBS and dissected tissues were washed to remove remaining blood. Plasma and tissue samples were stored at −80 °C until analysis. Urine was collected by bladder puncture at indicated time points.
For tissue analysis, homogenates (10% in phosphate-buffered saline, PBS) were prepared. Homogenate, plasma, and urine were mixed with IS and extracted with ice-cold ACN, centrifuged, filtered and stored in the autosampler at 6 °C until analysis in duplicates by LC-MS/MS (details in Supplementary Materials SM4).
Larixyl-N-methylcarbamate ((1S,4S,4aR,8aS)-4-((S)-3-hydroxy-3-methylpent-4-en-1-yl)-4a,8,8-trimethyl-3-methylenedeca-hydro-naphthalen-1-yl methylcarbamate, SH045, TRPC6 inhibitor) was synthesized as described by Häfner et al. [1]. (+)-Larixol (internal standard, IS) was isolated from Larix decidua turpentine [2]. Kolliphor® EL was obtained from Caelo (Hilden, Germany). Acetonitrile (ACN), water, and formic acid (LC -MS grade each) were purchased from Fisher Scientific (Schwerte, Germany). Testo sterone, 4-nitrophenol, β-nicotinamide adenine dinucleotide 2′ -phosphate reduced tetrasodium salt hydrate (β-NADPH), uridine 5′-diphosphoglucuronic acid ammonium salt (UDPGA), pilocarpine, ticlopidine, quercetin, sulfaphenazole, fluvoxamine, quinidine, 4-methyl pyrazole, ketoconazole, alamethicin and Dulbecco’s phosphate-buffered saline (DPBS, pH 7.4) were obtained from Merck (Darmstadt, Germany). Ciprofloxacin was purchased from Bayer AG (Leverkusen, Germany). Liver microsomes from mice (CD-1, male, MLM) and human (pooled: 50 donors, HLM) were obtained from Fisher Scientific (Gibco, protein concentration: 20 mg/mL respectively). Syringe filters (Phenex, regenerated cellulose, pore-size 0.2 μm) were purchased from Phenomenex (Aschaffenburg, Germany) and centrifugal filter units (30 kDa) from Merck Millipore […]
SM2 Quantification of SH045 by HPLC and tandem mass spectrometric methods (LC-MS/MS) In brief, chromatographic separation was achieved using a Zorbax Eclipse XDB-C8 column (100 × 3.0 mm, 3.5 μm 80 Å, Agilent Technologies) with linear gradient elution using water and ACN, each with 0.1 % formic acid as additive, during a total run time of 20 min. For quantification (+)-larixol was used as IS. MS detection was achieved by multiple reaction monitoring (MRM) scan mode for SH045 (m/z 364.3/289.3) and IS (m/z 307.2/151.2), respectively. Further conditions and parameters were set as reported previously [3]. Freshly prepared calibration samples for SH045 in plasma and tissue comprised eight concentration levels analyzed in duplicates (2, 5, 10, 100, 200, 800, 1200 and 1600 ng/mL). For metabolism studies in microsomes, SH045 was dissolved in pure DMSO. […]
All analyses for metabolite identification included comparative measurements of appropriate control samples in order to avoid false-positive results.
SM3 Histopathological examination of tissue repeatedly exposed to SH045 Liver, kidney and lung were collected after repeated administration for inspection for histopathological changes, fixed in 4% paraformaldehyde solution and embedded in paraffin. Tissue slices (6 µm) of three animals either of untreated controls or such assigned to repeated administration of SH045 were deparaffinized and hematoxylin and eosin-stained. At least 5 slices per animal and tissue were microscopically examined using a light microscope (Zeiss, […]
SM4 Preparation of samples for analysis of SH045 and its metabolites by LC-MS/MS […]

Tissue binding ([2]; kidney homogenate 1:10, SH045 1 µg/mL, 30 min): 97.6 ± 0.9%
Tissue binding ([2]; kidney homogenate 1:10, SH045 1 µg/mL, 60 min): 97.8 ± 0.4%
Tissue binding ([2]; kidney homogenate 1:10, SH045 1 µg/mL, 120 min): 98.3 ± 0.2%
Tissue binding ([2]; kidney homogenate 1:10, SH045 1 µg/mL, 240 min): 98.3 ± 0.1%
Tissue binding ([2]; liver homogenate 1:10, SH045 2 µg/mL, 30 min): 99.4 ± 0.1%
Tissue binding ([2]; liver homogenate 1:10, SH045 2 µg/mL, 60 min): 97.1 ± 1.0%
Tissue binding ([2]; liver homogenate 1:10, SH045 2 µg/mL, 120 min): 99.0 ± 0.1%
Tissue binding ([2]; liver homogenate 1:10, SH045 2 µg/mL, 240 min): 97.8 ± 0.9%
Tissue binding ([2]; lung homogenate 1:10, SH045 50 µg/mL, 30 min): 93.5 ± 1.2%
Tissue binding ([2]; lung homogenate 1:10, SH045 50 µg/mL, 60 min): 94.9 ± 0.1%
Tissue binding ([2]; lung homogenate 1:10, SH045 50 µg/mL, 120 min): 97.8 ± 0.5%
Tissue binding ([2]; lung homogenate 1:10, SH045 50 µg/mL, 240 min): 97.4 ± 0.8%
entry into the brain ([3]; 20 mg/kg i.v.): entered the brain
drug accumulation in tissues after repeated administration ([3]; 20 mg/kg i.v. five times once a day): no hints for drug accumulation
concentration at 24 h ([3]; male, C57BL/6, mouse, brain, iv, 24 h after repeated (5 days, once a day) 20 mg/kg BW i.v., read-out: Concentration, Brain): 19.6 ± 5.5 ng/g
concentration at 24 h ([3]; male, C57BL/6, mouse, brain, iv, 24 h after single (1×) 20 mg/kg BW i.v., read-out: Concentration, Brain): 14.8 ± 7.6 ng/g
concentration at 24 h ([3]; male, C57BL/6, mouse, fat, iv, 24 h after repeated (5 days, once a day) 20 mg/kg BW i.v., read-out: Concentration, Fat): 369 ± 50 ng/g
concentration at 24 h ([3]; male, C57BL/6, mouse, fat, iv, 24 h after single (1×) 20 mg/kg BW i.v., read-out: Concentration, Fat): 333 ± 61.2 ng/g
concentration at 24 h ([3]; male, C57BL/6, mouse, kidney, iv, 24 h after repeated (5 days, once a day) 20 mg/kg BW i.v., read-out: Concentration, Kidney): 17.8 ± 4.4 ng/g
concentration at 24 h ([3]; male, C57BL/6, mouse, kidney, iv, 24 h after single (1×) 20 mg/kg BW i.v., read-out: Concentration, Kidney): 14.8 ± 5.9 ng/g
concentration at 24 h ([3]; male, C57BL/6, mouse, liver, iv, 24 h after repeated (5 days, once a day) 20 mg/kg BW i.v., read-out: Concentration, Liver): 17.5 ± 4.6 ng/g
concentration at 24 h ([3]; male, C57BL/6, mouse, liver, iv, 24 h after single (1×) 20 mg/kg BW i.v., read-out: Concentration, Liver): 14.2 ± 5.2 ng/g
Kp ([3]; male, C57BL/6, mouse, lung, iv, 20 mg/kg BW, after i.v. administration, read-out: first-pass uptake into the lung relative to respective plasma concentration): ~20
concentration at 24 h ([3]; male, C57BL/6, mouse, lung, iv, 24 h after repeated (5 days, once a day) 20 mg/kg BW i.v., read-out: Concentration, Lung): 2390 ± 1020 ng/g
concentration at 24 h ([3]; male, C57BL/6, mouse, lung, iv, 24 h after single (1×) 20 mg/kg BW i.v., read-out: Concentration, Lung): 2170 ± 414 ng/g
Compound: C=C[C@@](C)(O)CC[C@H]1C(=C)C[C@H](OC(=O)NC)[C@H]2C(C)(C)CCC[C@]12C [SH045, (1S,4S,4aR,8aS)-4-((S)-3-Hydroxy-3-methylpent-4-en-1-yl)-4a,8,8-trimethyl-3-methylenedecahydronaphthalen-1-yl methylcarbamate]
IC50 (TRPC6): 5.8 nM
edema formation after reperfusion [1]: reduced edema formation
